# Test results from patent US9012446B2, “Amino-oxazines and amino-dihydrothiazine compounds as beta-secretase modulators and methods of use” (Amgen Inc., priority 2010, dated 2015).
# Like-named read-outs stand apart in the source and are kept apart here.
# Tests used:
# [1] = biological target: BACE (Homo sapiens, UniProt P56817); experiment: In vitro enzymatic BACE FRET assay; assay type: biochemical; conditions: average IC50, enzyme assay; read-out: BACE 1 FRET assay
# In short: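 BACE (0.2 nM) preincubated 1 h with serially diluted inhibitors in 0.05 M acetate pH 4.2, 10% DMSO, 100 uM genapol. FRET peptide substrate (50 nM) added, 1 h incubation, then stopped with Tris to neutral pH. Fluorescence from cleavage read at […].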
# [2] = system: Aβ40; experiment: In vitro BACE cell-based assay (Aβ40 sandwich ELISA, cells stably expressing APP); conditions: Homo sapiens, HEK293, average IC50, cell assay, HEK cells
# In short: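 APP-stably-expressing cells, grown 24 h in DMEM/10% FBS, received 10-point compound doses starting at 100 μM or 10 μM (0.1% DMSO final). Secreted Aβ40 in supernatants measured by sandwich ELISA with time-resolved europium fluorescence; IC50 from percent inhibition versus concentration.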
# [3] = system: Abeta 40; experiment: In vivo inhibition of beta-secretase: Abeta 40 reduction in CSF and brain of the rat; conditions: after 4 hrs; for inhibition in vivo at 10 mg/kg: 10 mpk
# From the text: In Vivo Inhibition of Beta-Secretase
# Several animal models, including mouse, rat, dog, and monkey, may be used to screen for inhibition of beta-secretase activity in vivo following administration of a test compound sample. Animals used in this invention can be wild type, transgenic, or gene knockout animals. For example, the Tg2576 mouse model, prepared and conducted as described in Hsiao et al., 1996, Science 274, 99-102, and other non-transgenic or gene knockout animals are useful to analyze in vivo inhibition of Amyloid beta peptide (Abeta) production in the presence of inhibitory test compounds. Generally, 2 to 18 month old Tg2576 mice, gene knockout mice or non-transgenic animals are administered test compounds formulated in vehicles, such as cyclodextran, phosphate buffers, hydroxypropyl methylcellulose or other suitable vehicles. One to twenty-four hours following the administration of compound, animals are sacrificed, and brains as well as cerebrospinal fluid (CSF) and plasma are removed for analysis of A-beta levels and drug or test compound concentrations (Dovey et al., 2001, Journal of Neurochemistry, 76,173-181) Beginning at time 0, animals are administered by oral gavage, or other means of delivery such as intravenous injection, an inhibitory test compound of up to 100 mg/kg in a standard, conventional formulation, such as 2% hydroxypropyl methylcellulose, 1% Tween80. A separate group of animals receive 2% hydroxypropyl methylcellulose, 1% Tween80 alone, containing no test compound, and serve as a vehicle-control group. At the end of the test period, animals are sacrificed and brain tissues, plasma or cerebrospinal fluid are collected. Brains are either homogenized in 10 volumes (w/v) of 0.2% diethylamine (DEA) in 50 mM NaCl (Best et al., 2005, Journal of Pharmacology and Experimental Therapeutics, 313, 902-908), or in 10 volumes of 0.5% TritonX-100 in Tris-buffered saline (pH at about 7.6). Homogenates are centrifuged at 355,000 g, 4° C. for 30 minutes. CSF or brain supernatants are then analyzed for the presence of A-beta peptide by specific sandwich ELISA assays based on ECL (Electrochemiluminescence) technology. For example, rat Abeta40 is measured using biotinylated-4G8 (Signet) as a capture antibody and Fab40 (an in-house antibody specific to the C-terminal of Abeta40) as a detection antibody. For example, 4 hours after administration of 30 mg/kg oral dose of the test compound in 2% hydroxypropyl methylcellulose, 1% Tween80 (pH2.2) to 200 g male Sprague Dawley rats, amyloid beta peptide levels are measured for reduction by X % and Y % in cerebrospinal fluid and brain, respectively, when compared to the levels measured in the vehicle-treated rats. • Actual vehicles used: Oral: 2% HPMC, 1% Tween80, pH 2.2 • IV: 5% EtOH, 45% Propylene glycol in 5% Dextrose
# The compounds of the invention may be shown to reduce the formation and/or deposition of amyloid beta peptide in the cerebrospinal fluid (CSF) as well as in the brain of a mouse or rat at either 3 mpk, 10 mpk or 30 mpk (mpk=mg compound per kg weight of the animal) dosing concentrations after 4 hrs.
# [4] = Abeta 40, rat CSF, read-out: % reduction of rat CSF levels at 10 pmk
# [5] = Abeta 40, rat brain, read-out: % reduction of rat brain levels at 10 mpk
# BACE, sequence (P56817 46-501, species assumed): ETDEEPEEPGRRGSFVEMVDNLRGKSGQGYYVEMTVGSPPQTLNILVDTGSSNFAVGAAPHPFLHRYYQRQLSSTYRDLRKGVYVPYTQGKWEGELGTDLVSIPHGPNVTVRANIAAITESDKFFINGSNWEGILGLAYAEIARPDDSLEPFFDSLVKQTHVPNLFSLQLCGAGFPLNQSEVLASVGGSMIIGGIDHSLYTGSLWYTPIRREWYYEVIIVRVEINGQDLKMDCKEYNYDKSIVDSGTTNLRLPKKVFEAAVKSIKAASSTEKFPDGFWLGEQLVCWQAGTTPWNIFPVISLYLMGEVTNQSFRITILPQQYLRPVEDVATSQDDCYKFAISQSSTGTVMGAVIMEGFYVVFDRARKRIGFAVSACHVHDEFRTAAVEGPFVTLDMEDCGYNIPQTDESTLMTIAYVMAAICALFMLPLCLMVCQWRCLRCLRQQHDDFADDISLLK
SMILES,IC50 [1] [nM],IC50 [2] [nM],"inhibition in vivo at 10 mg/kg [3, 4] [%]","inhibition in vivo at 10 mg/kg [3, 5] [%]","% reduction of rat CSF levels ([3]; Abeta 40, rat CSF) [% at 3 mpk]","% reduction of rat brain levels ([3]; Abeta 40, rat brain) [% at 3 mpk]"
"CC(C)(C)C#Cc1cnc2c(c1)[C@]1(COCC(N)=N1)c1cc(-c3cccnc3F)ccc1O2 [Example 89, (S)-3-(3,3-dimethylbut-1-yn-1-yl)-7-(2-fluoropyridin-3-yl)-2′,6′-dihydrospiro[chromeno[2,3-b]pyridine-5,3′-[1,4]oxazin]-5′-amine]",0.7,0.4,50,41,–,–
"Cc1ccc(-c2cnc3c(c2)[C@]2(COCC(N)=N2)c2cc(-c4cccnc4F)ccc2O3)cc1 [Example 90, (S)-7-(2-fluoropyridin-3-yl)-3-(p-tolyl)-2′,6′-dihydrospiro[chromeno[2,3-b]pyridine-5,3′-[1,4]oxazin]-5′-amine]",0.6,1.2,–,–,7,0
"NC1=N[C@@]2(COC1)c1cc(-c3cccnc3F)ccc1Oc1ncc(-c3ccc(F)cc3)cc12 [Example 91, (S)-3-(4-fluorophenyl)-7-(2-fluoropyridin-3-yl)-2′,6′-dihydrospiro[chromeno[2,3-b]pyridine-5,3′-[1,4]oxazin]-5′-amine]",0.5,0.7,29,3,–,–
"NC1=N[C@@]2(CCO1)c1cc(-c3cccnc3F)ccc1Oc1c2cc(-c2ccnc(F)c2)nc1F [Example 107, (S)-1-fluoro-7-(2-fluoropyridin-3-yl)-3-(2-fluoropyridin-4-yl)-5′,6′-dihydrospiro[chromeno[2,3-c]pyridine-5,4′-[1,3]oxazin]-2′-amine]",0.5,1.8,82,72,–,–
"NC1=N[C@@]2(CCO1)c1cc(-c3cccnc3F)ccc1Oc1c2cc(C2=CCCOC2)nc1F [Example 110, (S)-3-(5,6-dihydro-2H-pyran-3-yl)-1-fluoro-7-(2-fluoropyridin-3-yl)-5′,6′-dihydrospiro[chromeno[2,3-c]pyridine-5,4′-[1,3]oxazin]-2′-amine]",0.5,0.5,86,79,–,–
"NC1=N[C@@]2(CCO1)c1cc(-c3cccnc3F)ccc1Oc1cnc(C3=CCOCC3)cc12 [Example 111, (5S)-3-(3,6-dihydro-2H-pyran-4-yl)-7-(2-fluoro-3-pyridinyl)-5′,6′-dihydrospiro[chromeno[2,3-c]pyridine-5,4′-[1,3]oxazin]-2′-amine]",1.8,2.1,81,67,–,–
"NC1=N[C@@]2(COC1)c1cc(-c3cncc(F)c3)ccc1Oc1cnc(-c3ccc(F)c(F)c3)cc12 [Example 114, (S)-3-(3,4-difluorophenyl)-7-(5-fluoropyridin-3-yl)-2′,6′-dihydrospiro[chromeno[2,3-c]pyridine-5,3′-[1,4]oxazin]-5′-amine]",0.4,2.3,54,34,–,–
"NC1=N[C@@]2(COC1)c1cc(-c3cccnc3)ccc1Oc1cnc(-c3ccc(F)c(F)c3)cc12 [Example 115, (S)-3-(3,4-difluorophenyl)-7-(pyridin-3-yl)-2′,6′-dihydrospiro[chromeno[2,3-c]pyridine-5,3′-[1,4]oxazin]-5′-amine]",0.4,1.6,38,21,–,–
"CC(C)(C)COc1cc2c(cn1)Oc1ccc(-c3cccnc3)cc1[C@@]21COCC(N)=N1 [Example 119, (S)-3-(neopentyloxy)-7-(pyridin-3-yl)-2′,6′-dihydrospiro[chromeno[2,3-c]pyridine-5,3′-[1,4]oxazin]-5′-amine]",0.6,0.4,–,–,5,6
"CC(C)(C)COc1cc2c(cn1)Oc1ccc(-c3cncc(F)c3)cc1[C@@]21COCC(N)=N1 [Example 120, (S)-7-(5-fluoropyridin-3-yl)-3-(neopentyloxy)-2′,6′-dihydrospiro[chromeno[2,3-c]pyridine-5,3′-[1,4]oxazin]-5′-amine]",0.6,0.7,–,–,30,24
"NC1=N[C@@]2(COC1)c1cc(-c3cncc(F)c3)ccc1Oc1cnc(N3CCC(F)(F)C3)cc12 [Example 122, (S)-3-(3,3-difluoropyrrolidin-1-yl)-7-(5-fluoropyridin-3-yl)-2′,6′-dihydrospiro[chromeno[2,3-c]pyridine-5,3′-[1,4]oxazin]-5′-amine]",0.6,0.3,–,–,11,14
"CC(C)(C#N)COc1cc2c(cn1)Oc1ccc(-c3cccc(F)c3)cc1[C@@]21COCC(N)=N1 [Example 126, (S)-3-(5′-amino-7-(3-fluorophenyl)-2′,6′-dihydrospiro[chromeno[2,3-c]pyridine-5,3′-[1,4]oxazine]-3-yloxy)-2,2-dimethylpropanenitrile]",0.4,1.5,25,8,–,–
"NC1=N[C@@]2(COC1)c1cc(-c3cccnc3F)ccc1Oc1c2cc(N2CCC(F)(F)CC2)nc1F [Example 129, (S)-3-(4,4-difluoropiperidin-1-yl)-1-fluoro-7-(2-fluoropyridin-3-yl)-2′,6′-dihydrospiro[chromeno[2,3-c]pyridine-5,3′-[1,4]oxazin]-5′-amine 2,2,2-trifluoroacetate]",0.9,4.9,22,17,–,–
"NC1=N[C@@]2(COC1)c1cc(-c3cccnc3F)ccc1Oc1c(F)cc(C3=CCCOC3)cc12 [Example 132, (S)-2′-(5,6-dihydro-2H-pyran-3-yl)-4′-fluoro-7′-(2-fluoropyridin-3-yl)-2,6-dihydrospiro[[1,4]oxazine-3,9′-xanthen]-5-amine]",0.3,1.3,38,25,–,–
"NC1=N[C@@]2(CCO1)c1cc(-c3cncc(F)c3)ccc1Oc1cnc(-c3ccnc(F)c3)cc12 [Example 145, (S)-7-(5-fluoropyridin-3-yl)-3-(2-fluoropyridin-4-yl)-5′,6′-dihydrospiro[chromeno[2,3-c]pyridine-5,4′-[1,3]oxazin]-2′-amine]",5,4,78,59,–,–
"NC1=N[C@@]2(CCO1)c1cc(-c3cncc(F)c3)ccc1Oc1cnc(C3=CCCOC3)cc12 [Example 146, (S)-3-(5,6-dihydro-2H-pyran-3-yl)-7-(5-fluoropyridin-3-yl)-5′,6′-dihydrospiro[chromeno[2,3-c]pyridine-5,4′-[1,3]oxazin]-2′-amine]",2.2,1.5,75,62,–,–
"NC1=N[C@@]2(CCO1)c1cc(-c3cccnc3F)ccc1Oc1cnc(-c3ccnc(F)c3)cc12 [Example 149, (S)-7-(2-fluoropyridin-3-yl)-3-(2-fluoropyridin-4-yl)-5′,6′-dihydrospiro[chromeno[2,3-c]pyridine-5,4′-[1,3]oxazin]-2′-amine]",4.8,3.8,80,62,–,–
